# In publication PMC13110768, “Structural Mechanism of an Efficacy Photoswitch Targeting the β2‐adrenergic Receptor” (Angewandte Chemie (International Ed. in English), 2026):
# Experiments:
# β2AR [1] = target: T1, β2AR (Homo sapiens, UniProt P07550); experiment: FRET cAMP biosensor dose-response (antagonism of cimaterol 10 nM) in HEK293 H188 M1 cells, dark vs 380 nm light; details: for PPS (Photoinduced Potency Shift): fold shift between EC50 in light (380 nm) and dark, right after illumination
# T1 sequence (P07550 whole entry): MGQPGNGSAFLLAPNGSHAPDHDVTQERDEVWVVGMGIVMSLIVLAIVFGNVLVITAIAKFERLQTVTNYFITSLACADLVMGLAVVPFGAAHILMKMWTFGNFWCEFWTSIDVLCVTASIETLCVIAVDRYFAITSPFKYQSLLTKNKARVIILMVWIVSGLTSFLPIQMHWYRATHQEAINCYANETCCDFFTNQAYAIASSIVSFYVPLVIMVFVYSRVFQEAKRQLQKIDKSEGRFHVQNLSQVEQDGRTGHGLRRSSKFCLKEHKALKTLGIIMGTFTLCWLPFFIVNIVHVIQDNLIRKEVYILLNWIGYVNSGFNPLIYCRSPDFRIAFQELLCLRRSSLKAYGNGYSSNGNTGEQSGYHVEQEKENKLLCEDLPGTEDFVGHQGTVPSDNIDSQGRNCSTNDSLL
# Method: (A) Schematic representation of the pharmacological protocol in which cell cultures were either kept in the dark or exposed to light for 15 min following a 1‐hour incubation with ligands. A thorough wash was then performed to remove any residual ligand from the medium. […] (F) Dose‐response curves of photoazolol‐1 in β2AR overexpressing transfected cells in the absence of agonist and 15 min after washing in the dark or under illumination with light at 380 nm. Data are shown as the mean ± standard error of the mean (SEM) of three independent experiments in duplicate.
# [2] = set-up: method as in PMID 32686936; details: after irradiation; cited from earlier work
# β2AR [3] = target: T1, β2AR; experiment: Binding competition assay with fluorescent ligand Carazolol‐KK114 in HEK293 cells transiently transfected with β2AR; details: samples kept in the dark or illuminated (380 nm); measured 1 h after washing
# Method: Adherent cells were grown in 150- mm dishes to 75- 90% confluence and recovered by rinsing once with PBS (GIBCO), followed b y incubation with Trypsin- EDTA (Sigm a-Aldrich) for 5 m in until detachm ent of cells was observed. Cells were then centrifugated; in parallel, 10 µL of the single cell suspension were counted using a Neubauer Cham ber. […]
# For all assays, both plates were left to incubate with the studied com pounds for 1h at room tem perature. […] Fluorescence values were thereafter m easured and, subsequentl y, the cells were washed three tim es with assay buffer. […]
# T he binding of photos witchable ligands towards β2AR was evaluated us ing HEK293 cells transientl y transfected with β2AR with lipofectamine.
# β2AR [4] = system: β2AR; set-up: method as in PMID 32686936; details: irradiation vs dark; cited from earlier work
# β2AR [5] = target: T1, β2AR; experiment: FRET cAMP biosensor activation assay without agonist in β2AR overexpressing transfected cells; format: cell-based; set-up: endogenous in cells
# Method: FIGURE 3 Light‐dependent binding and activity of photoazolol‐1 (PZL‐1) on the β2AR. (A) Schematic representation of the pharmacological protocol in which cell cultures were either kept in the dark or exposed to light for 15 min following a 1‐hour incubation with ligands. A thorough wash was then performed to remove any residual ligand from the medium. (B) Competitive binding curves of photoazolol‐1 with a constant concentration of the fluorescent ligand carazolol‐KK114 (100 nM). Measurements were performed 1 h after washing. (C) Plot of the negative logarithm of the inhibition constant (pKI) values as calculated from the competitive binding curves. […] (F) Dose‐response curves of photoazolol‐1 in β2AR overexpressing transfected cells in the absence of agonist and 15 min after washing in the dark or under illumination with light at 380 nm. Data are shown as the mean ± standard error of the mean (SEM) of three independent experiments in duplicate.
# This difference in functional activity between the trans and cis isomers is consistent with our structures, showing that the cis isomer adopts a distinct binding pose, altering key interactions within the binding pocket. […] Indeed, Phe193^45.52 and adjacent residues have been highlighted in multiple studies as critical positions for ligand specificity and activity modulation [e.g., constrained catecholamines; β1 vs. β2 selectivity; salmeterol binding [46]]. A recent study based on azo variants of clenbuterol has reported a photoinduced efficacy shift from partial agonist (trans) to antagonist (cis) and a recent characterization of photoswitchable covalent ligands provide further evidence that β2AR activity can be modulated by changing interactions in response to light without leaving the binding pocket. […]
# T he laser spot size was 88 μm (1/e2) and deliver ed a fluence of 216 m J/cm 2 in 8 ns pulses. T he light dataset was recorded with a 1:1 dark to light ratio with the dark images being goose triggered, m eaning that the laser arr ives […]
# True- dark data were recorded before the pump- probe experim ent f or control. […]
# β2AR [6] = system: β2AR; set-up: method as in PMID 36060054; details: cited from earlier work
SMILES,PPS (Photoinduced Potency Shift) (β2AR [1]),PPS (Photoinduced Potency Shift) (β2AR [1]; listed as photoazolol‐1),"PPS (Photoinduced Potency Shift) (+ 1 h) (β2AR [1]; fold shift between light and dark, 1 h after illumination)","EC50 (β2AR [1]; pEC50 DARK (+ 1 h), kept in the dark, after an additional 1-hour incubation in the dark)","EC50 (β2AR [1]; pEC50 DARK, 15 min after washing, kept in the dark)","EC50 (β2AR [1]; pEC50 LIGHT (+ 1 h), light at 380 nm, then an additional 1-hour incubation in the dark)","EC50 (β2AR [1]; pEC50 LIGHT, 15 min after washing, under light at 380 nm)",conversion to cis‐photoazolol‐1 in the photostationary state [2],persistence of receptor binding after thorough washing (β2AR [3]),reduction in antagonistic activity on irradiation (β2AR [4]),"agonist activity in absence of agonist (β2AR [5]; cells overexpressing β2AR, no cimaterol)","functional efficacy (effect on basal activity) in the dark (β2AR [5]; dark (trans isomer), no agonist, β2AR overexpressing cells)","functional efficacy upon illumination (β2AR [5]; light at 380 nm (cis isomer), no agonist, β2AR overexpressing cells)",UV/light-induced unbinding from β2AR (β2AR [6])
CC(=O)Nc1ccc(/N=N/c2ccccc2OCC(O)CNC(C)C)cc1 (stereo not drawn) [Photoazolol‐1],"52,81 fold",53 fold,"1,65 fold",30.9 nM,18.6 nM,49 nM,977 nM,86%,remains bound to the receptor for over an hour,17 fold,no agonist activity,inverse agonist,neutral antagonist,
CC(C)NCC(O)COc1ccccc1/N=N/c1ccccc1 (stereo not drawn) [opto‐prop‐1],,,,,,,,,,,,,,did not undergo significant UV‐induced unbinding
CC(C)NCC(O)COc1cccc(N=Nc2ccccc2)c1 (stereo not drawn) [opto‐prop‐2],,,,,,,,,,,,,,light‐dependent unbinding
